This is an account of results in article PMC3600304, “Inhibitors of Fatty Acid Synthesis Induce PPARα-Regulated Fatty Acid β-Oxidative Genes: Synergistic Roles of L-FABP and Glucose” (PPAR Research, 2013).

One assay concerns PPARα. The settings on record: COS7 cells; cited from earlier work.
The target in a further assay is T1, L-FABP (Rattus norvegicus, UniProt P02692).
T1 construct: made in house
T1 sequence (P02692 1-127): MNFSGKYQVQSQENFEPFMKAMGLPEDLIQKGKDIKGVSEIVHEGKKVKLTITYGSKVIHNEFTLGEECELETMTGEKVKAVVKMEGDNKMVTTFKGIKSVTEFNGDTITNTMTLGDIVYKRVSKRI
The experiment in a line: Displacement of L-FABP-bound ANS. It is filed as binding. To be noted: read-out: K i, displacing L-FABP-bound ANS. The procedure: Advantage was taken of the fact that NBD-stearic acid bound to L-FABP (two ligand binding sites) as well as SCP-2 (single-ligand binding site) to design a NBD-stearic acid displacement assay that allowed determination of which fatty acid synthesis inhibitors or their CoA thioesters bound to these LCFA/LCFA-CoA binding proteins. Displacement of NBD-stearate from L-FABP and SCP-2 was determined by incubating L-FABP or SCP-2 (25 nM in 10 mM phosphate buffer) with NBD stearate (40 nM) for 12 min to obtain maximal fluorescence, followed by titration with increasing amount of ligand. From the displacement curve, the K i value was calculated as described. All experiments were carried out with a thermostated cuvette to maintain temperature at 24°C using a circulating water bath. ANS displacement assay was performed as described.

For the molecule `CCCCCCCCCCCCCCOc1ccc(C(=O)O)o1` [TOFA, 5-tetradecyloxy-2-furancarboxylic acid], the “Transactivation of PPARα” value in the assay with PPARα is on record as “transactivated”. In the case of `C=C1C(=O)OC(CCCCCCCC)C1C(=O)O` (centres unmarked) [C75, 4-methylene-2-octyl-5-oxotetrahydrofuran-3-carboxylic acid], the Ki at L-FABP came to 5.59 ± 0.31 µM.
